Assay results as given in PubChem BioAssay AID248 (DTP/NCI, 2004).
Values joined by “and” are separate entries in the source; they are usually repeats but may differ in a detail not shown here. Equal entries are not always repeated. Toxic doses and inconclusive results are not listed. No stated cut-off is given here; in the data, active means T/C of 150% or more; inactive means T/C below 125%.

Tested on: L1210 leukemia ip in BDF1 mice, survival T/C
Assay: NCI In Vivo Anticancer Drug Screen. Data for tumor model L1210 Leukemia (intraperitoneal) in B6D2F1 (BDF1) mice
Settings: endpoint: mean survival time, higher = longer survival
Summary of the method: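 Each compound was tested against a transplantable tumor grown in mice. The endpoint was survival, with treated animals benchmarked against vehicle controls as a simple ratio.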

[1] = dose: 25.0 mg/kg/injection, schedule: Q04DX003 (ip), vehicle: Klucel (hydroxypropylcellulose) (HPC)
[2] = dose: 50.0 mg/kg/injection, schedule: Q04DX003 (ip), vehicle: Klucel (hydroxypropylcellulose) (HPC)
[3] = dose: 100.0 mg/kg/injection, schedule: Q04DX003 (ip), vehicle: Klucel (hydroxypropylcellulose) (HPC)
[4] = dose: 100.0 mg/kg/injection, schedule: Q01DX001 (ip), vehicle: saline with Tween-80
[5] = dose: 200.0 mg/kg/injection, schedule: Q01DX001 (ip), vehicle: saline with Tween-80
[6] = dose: 100.0 mg/kg/injection, schedule: Q04DX003 (ip), vehicle: saline
[7] = dose: 200.0 mg/kg/injection, schedule: Q04DX003 (ip), vehicle: saline
[8] = dose: 400.0 mg/kg/injection, schedule: Q04DX003 (ip), vehicle: saline
[9] = dose: 100.0 mg/kg/injection, schedule: Q01DX009 (ip), vehicle: Klucel (hydroxypropylcellulose) (HPC)
[10] = dose: 200.0 mg/kg/injection, schedule: Q01DX009 (ip), vehicle: Klucel (hydroxypropylcellulose) (HPC)
[11] = dose: 400.0 mg/kg/injection, schedule: Q01DX009 (ip), vehicle: Klucel (hydroxypropylcellulose) (HPC)

Measured: T/C

CCOC(=O)c1cc([N+](=O)[O-])cc2c1-c1c(cc([N+](=O)[O-])cc1[N+](=O)[O-])C2=O
inactive: dose: 12.5 mg/kg/injection, schedule: Q04DX003 (ip), vehicle: Klucel (hydroxypropylcellulose) (HPC) 98 % of control | [1] 101 % of control | [2] 103 % of control | [3] 96 % of control

O=C1c2ccccc2CC/C(=N\O)C1c1ccccc1 (stereo not drawn)
inactive: [4] 107 % of control | [5] 98 % of control | dose: 400.0 mg/kg/injection, schedule: Q01DX001 (ip), vehicle: saline with Tween-80 104 % of control

CC(=O)NC(C(=O)O)C(C)C(=O)O (stereo not drawn)
inactive: [6] 90 % of control | [7] 93 % of control | [8] 92 % of control

Cc1c[n+]([O-])ccc1N=Nc1ccc(N(C)C)cc1
inactive: [1] 104 % of control | [2] 110 % of control | [3] 106 % of control and 107 % of control

ClC1=c2ccccc2=C2C(Cl)=c3ccccc3=C12
inactive: dose: 50.0 mg/kg/injection, schedule: Q04DX002 (ip), vehicle: Klucel (hydroxypropylcellulose) (HPC) 97 % of control | dose: 100.0 mg/kg/injection, schedule: Q04DX002 (ip), vehicle: Klucel (hydroxypropylcellulose) (HPC) 97 % of control

Cc1cccc(C)c1NC(=O)N(Cc1ccccc1)Cc1ccccc1
inactive: [9] 98 % of control | [10] 112 % of control | [11] 110 % of control

Cc1cc2ccc(OC(=O)c3ccc(N=C(N)N)cc3)cc2oc1=O
inactive: dose: 100.0 mg/kg/injection, schedule: Q04DX003 (ip), vehicle: saline with Tween-80 97 % of control | dose: 200.0 mg/kg/injection, schedule: Q04DX003 (ip), vehicle: saline with Tween-80 95 % of control | dose: 400.0 mg/kg/injection, schedule: Q04DX003 (ip), vehicle: saline with Tween-80 98 % of control

Cc1cc([N+](=O)[O-])ccc1NC(=O)Nc1cccc(C(F)(F)F)c1
inactive: [9] 88 % of control | [10] 92 % of control | [11] 90 % of control

CCCCc1ccc(Nc2cc(=O)[nH]c(=O)[nH]2)cc1
inactive: dose: 25.0 mg/kg/injection, schedule: Q01DX001 (ip), vehicle: gum acacia 87 % of control | dose: 50.0 mg/kg/injection, schedule: Q01DX001 (ip), vehicle: gum acacia 87 % of control | dose: 200.0 mg/kg/injection, schedule: Q01DX001 (ip), vehicle: gum acacia 88 % of control | dose: 400.0 mg/kg/injection, schedule: Q01DX001 (ip), vehicle: gum acacia 88 % of control

CN=C(NCc1ccccc1)c1ccc(NC(=O)c2ccc(C(=O)Nc3ccc(C(=NC)NCc4ccccc4)cc3)cc2)cc1
inactive: dose: 1.9 mg/kg/injection, schedule: Q01DX Z (ip), vehicle: methylcellulose (MC) 97 % of control | dose: 3.8 mg/kg/injection, schedule: Q01DX Z (ip), vehicle: methylcellulose (MC) 108 % of control | dose: 7.5 mg/kg/injection, schedule: Q01DX Z (ip), vehicle: methylcellulose (MC) 93 % of control

CCOC(=O)c1cc(=O)c2c(ccc3cc(OC)ccc32)[nH]1
inactive: dose: 6.25 mg/kg/injection, schedule: Q04DX002 (ip), vehicle: carboxymethylcellulose (CMC) 101 % of control and 89 % of control | dose: 12.5 mg/kg/injection, schedule: Q01DX001 (ip), vehicle: carboxymethylcellulose (CMC) 105 % of control | dose: 12.5 mg/kg/injection, schedule: Q01DX009 (ip), vehicle: carboxymethylcellulose (CMC) 94 % of control and 105 % of control | dose: 12.5 mg/kg/injection, schedule: Q04DX003 (ip), vehicle: carboxymethylcellulose (CMC) 100 % of control | dose: 25.0 mg/kg/injection, schedule: Q01DX001 (ip), vehicle: carboxymethylcellulose (CMC) 105 % of control | dose: 25.0 mg/kg/injection, schedule: Q01DX009 (ip), vehicle: carboxymethylcellulose (CMC) 97 % of control and 98 % of control | dose: 25.0 mg/kg/injection, schedule: Q04DX003 (ip), vehicle: carboxymethylcellulose (CMC) 93 % of control | dose: 50.0 mg/kg/injection, schedule: Q01DX001 (ip), vehicle: carboxymethylcellulose (CMC) 94 % of control | dose: 50.0 mg/kg/injection, schedule: Q01DX009 (ip), vehicle: carboxymethylcellulose (CMC) 94 % of control and 88 % of control | dose: 50.0 mg/kg/injection, schedule: Q04DX003 (ip), vehicle: carboxymethylcellulose (CMC) 100 % of control

O=C1C2CCN(CC2)C1C(c1ccccc1)c1ccccc1 (stereo not drawn)
inactive: [6] 96 % of control | [7] 102 % of control | [8] 100 % of control

CCNCC(=O)O
inactive: dose: 100.0 mg/kg/injection, schedule: Q04DX002 (ip), vehicle: saline 96 % of control | dose: 200.0 mg/kg/injection, schedule: Q04DX002 (ip), vehicle: saline 101 % of control | dose: 400.0 mg/kg/injection, schedule: Q04DX002 (ip), vehicle: saline 104 % of control

COC(=O)CCN1C(=O)c2ccccc2C1=O
inactive: [4] 110 % of control | [5] 102 % of control

CCOC1(OCC)C(C)C(c2ccccc2)C(c2ccccc2)C1C (stereo not drawn)
inactive: dose: 75.0 mg/kg/injection, schedule: Q01DX001 (ip), vehicle: saline 95 % of control | dose: 150.0 mg/kg/injection, schedule: Q01DX001 (ip), vehicle: saline 90 % of control | dose: 300.0 mg/kg/injection, schedule: Q01DX001 (ip), vehicle: saline 89 % of control

O=[N+]([O-])c1ccc(/C=C/c2ccc(S(=O)(=O)F)cc2Cl)c(Cl)c1
inactive: dose: 100.0 mg/kg/injection, schedule: Q01DX001 (ip), vehicle: Klucel (hydroxypropylcellulose) (HPC) 97 % of control | dose: 200.0 mg/kg/injection, schedule: Q01DX001 (ip), vehicle: Klucel (hydroxypropylcellulose) (HPC) 87 % of control | dose: 400.0 mg/kg/injection, schedule: Q01DX001 (ip), vehicle: Klucel (hydroxypropylcellulose) (HPC) 93 % of control

CCCC[N+](CCCC)=c1cc(-c2ccc(Cl)cc2)ss1
inactive: dose: 100.0 mg/kg/injection, schedule: Q04DX003 (ip), vehicle: water 95 % of control | dose: 200.0 mg/kg/injection, schedule: Q04DX003 (ip), vehicle: water 96 % of control

CCN(CC)CCOc1ccccc1C
inactive: dose: 20.0 mg/kg/injection, schedule: Q01DX009 (ip), vehicle: saline 90 % of control | dose: 40.0 mg/kg/injection, schedule: Q01DX009 (ip), vehicle: saline 88 % of control | dose: 40.0 mg/kg/injection, schedule: Q04DX003 (ip), vehicle: saline 106 % of control | dose: 80.0 mg/kg/injection, schedule: Q01DX009 (ip), vehicle: saline 89 % of control | dose: 80.0 mg/kg/injection, schedule: Q04DX003 (ip), vehicle: saline 100 % of control

C/C(=N\O)c1ccccc1C
inactive: [3] 101 % of control | dose: 200.0 mg/kg/injection, schedule: Q04DX003 (ip), vehicle: Klucel (hydroxypropylcellulose) (HPC) 106 % of control | dose: 400.0 mg/kg/injection, schedule: Q04DX003 (ip), vehicle: Klucel (hydroxypropylcellulose) (HPC) 93 % of control

CCC1CCCC1=O (stereo not drawn)
inactive: dose: 50.0 mg/kg/injection, schedule: Q01DX001 (ip), vehicle: saline 95 % of control | dose: 200.0 mg/kg/injection, schedule: Q01DX001 (ip), vehicle: saline 90 % of control

CCC(Cl)COP(=O)(OCC(Cl)CC)C(C(C)C)P(=O)(OCC(Cl)CC)OCC(Cl)CC (stereo not drawn)
inactive: dose: 100.0 mg/kg/injection, schedule: Q04DX002 (ip), vehicle: saline with Tween-80 96 % of control | dose: 200.0 mg/kg/injection, schedule: Q04DX002 (ip), vehicle: saline with Tween-80 100 % of control | dose: 400.0 mg/kg/injection, schedule: Q04DX002 (ip), vehicle: saline with Tween-80 89 % of control

COc1ccc(/C=C2\CCC3C4(CCCC3(C)C2=O)OCCO4)cc1 (stereo not drawn)
inactive: dose: 200.0 mg/kg/injection, schedule: Q01DX009 (ip), vehicle: saline 92 % of control | dose: 400.0 mg/kg/injection, schedule: Q01DX009 (ip), vehicle: saline 101 % of control

O=c1[nH]cnc2nc(-c3cccc([N+](=O)[O-])c3)[nH]c12
inactive: dose: 100.0 mg/kg/injection, schedule: Q04DX003 (ip), vehicle: gum acacia 102 % of control | dose: 200.0 mg/kg/injection, schedule: Q04DX003 (ip), vehicle: gum acacia 92 % of control | dose: 400.0 mg/kg/injection, schedule: Q04DX003 (ip), vehicle: gum acacia 96 % of control

COc1ccc([N+](=O)[O-])c2c1CONC2(C)C(=O)O (stereo not drawn)
inactive: dose: 100.0 mg/kg/injection, schedule: Q04DX003 (ip), vehicle: acetone 98 % of control | dose: 200.0 mg/kg/injection, schedule: Q04DX003 (ip), vehicle: acetone 95 % of control | dose: 400.0 mg/kg/injection, schedule: Q04DX003 (ip), vehicle: acetone 98 % of control
